Measured values from patent US11197859B2 (AUTIFONY THERAPEUTICS LIMITED, priority 2010, dated 2021).

Assays:
[1] = system: parvalbumin-positive interneurons in the somatosensory cortex; experiment: Firing of parvalbumin-positive interneurons in somatosensory cortex slices, in vitro; assay type: cell-based, mouse; conditions: 0.5 mM, vs control slices (0.1% DMSO)
MNTB neurons = experiment: High-voltage activated potassium currents in MNTB neurons, in vitro; assay type: cell-based, mouse; conditions: 1 mM
Description: Male CBA/Ca mice (aged 12-16 days) were used in these experiments (in accordance with the UK Animals Scientific Procedures Act, 1986). Brain slices containing the medial nucleus of the trapezoid body (MNTB) were prepared as described previously (Brew and Forsythe, 2005).
Chemicals and reagents were purchased from Sigma, (Poole, UK) unless otherwise noted. Reference Example RE1 was dissolved in DMSO and diluted in ACSF to the required concentration.
Recordings from identified MNTB neurons were conducted as previously described (Brew and Forsythe, 2005). Slices was placed in a superfusion chamber on an inverted microscope stage and continuously perfused with gassed (95% O2-5% CO2) ACSF at a rate of 1 ml min-1 at room temperature. Whole-cell recordings were made from visually identified MNTB neurons using an […] amplifier (Molecular Devices, Union City, Calif., USA). Patch solution comprised (in mM) potassium gluconate (97.5), KCl (32.5), Hepes (40), EGTA (5), MgCl2 (1), Na2phosphocreatin (5), pH 7.2 with KOH. Pipettes had resistances of 3-5 MΩ and series resistances were 6-10 MΩ (compensated by 70%, 10 μs lag). Access resistance was frequently monitored and the recording discarded if increases were more than 2 MΩ. […]

Kv3 channels = conditions: cited from earlier work

## CC[N+](CC)(CC)CC [TEA, Tetraethylammonium, reference compound]
[1]
  action potential half-width: significantly increased
  maximal frequency of action potential firing in response to step currents: fired at a lower maximal frequency
MNTB neurons
  amplitude of outward high voltage-activated potassium currents evoked by voltage steps to +40 mV: significantly reduced
Kv3 channels
  inhibition of Kv3 channels: inhibit the channels at low millimolar concentrations
